Test results as given in US10399987B2, “TGF beta receptor antagonists” (BRISTOL-MYERS SQUIBB COMPANY, priority 2015, dated 2019).

biological target: HIS-TGFβR1 T204D (Homo sapiens (Human), UniProt P36897, T204D); assay: TGFβR1 HIS T204D HTRF assay (labeled small molecule probe, anti-HIS detection antibody); type: binding; details: 1 nM HIS-TGFβR1 T204D, probe at Kd, 1 hour at room temperature, eleven concentrations
Sequence (P36897 34-503 T204D): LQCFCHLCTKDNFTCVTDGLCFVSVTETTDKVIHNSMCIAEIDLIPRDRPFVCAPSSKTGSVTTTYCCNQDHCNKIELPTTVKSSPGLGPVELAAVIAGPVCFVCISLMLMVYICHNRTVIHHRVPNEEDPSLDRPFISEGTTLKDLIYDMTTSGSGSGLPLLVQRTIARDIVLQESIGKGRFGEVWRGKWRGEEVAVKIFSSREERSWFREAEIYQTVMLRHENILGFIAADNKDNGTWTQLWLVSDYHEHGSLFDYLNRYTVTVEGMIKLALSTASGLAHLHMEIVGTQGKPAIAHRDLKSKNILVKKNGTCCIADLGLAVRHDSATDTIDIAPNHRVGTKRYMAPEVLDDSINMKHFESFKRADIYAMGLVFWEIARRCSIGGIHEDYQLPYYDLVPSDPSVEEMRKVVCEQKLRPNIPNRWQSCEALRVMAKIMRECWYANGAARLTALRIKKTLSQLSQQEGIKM

IC50 [nM]	Structure (SMILES)
0.6	FC(F)(F)c1cccc(-c2nc(Nc3ccncc3Cl)c3cc[nH]c3n2)n1 [Example 40, 3-chloro-N-{2-[6-(trifluoromethyl)pyridin-2-yl]-7H-pyrrolo[2,3-d]pyrimidin-4-yl}pyridin-4-amine]
0.87	O=C(Nc1cc(Nc2nc(-c3cccc(C(F)(F)F)n3)nc3[nH]ccc23)ccn1)C1CC1 [Example 41, N-[4-({2-[6-(trifluoromethyl)pyridin-2-yl]-7H-pyrrolo[2,3-d]pyrimidin-4-yl}amino)pyridin-2-yl]cyclopropanecarboxamide]
1.7	COc1cnccc1Nc1nc(-c2cccc(C(F)(F)F)n2)nc2[nH]ccc12 [Example 42, 3-methoxy-N-{2-[6-(trifluoromethyl)pyridin-2-yl]-7H-pyrrolo[2,3-d]pyrimidin-4-yl}pyridin-4-amine]
2.6	CC(=O)Nc1cc(Nc2nc(-c3cccc(C(F)F)n3)nc3[nH]cc(CNCC(C)(C)O)c23)c(F)cn1 [Example 44, N-[4-({2-[6-(difluoromethyl)pyridin-2-yl]-5-{[(2-hydroxy-2-methylpropyl)amino]methyl}-7H-pyrrolo[2,3-d]pyrimidin-4-yl}amino)-5-fluoropyridin-2-yl]acetamide]
1	Cc1cnccc1Nc1nc(-c2ccc(F)c(C)n2)nc2[nH]ccc12 [Example 45, N-[2-(5-fluoro-6-methylpyridin-2-yl)-7H-pyrrolo[2,3-d]pyrimidin-4-yl]-3-methylpyridin-4-amine]
0.79	COc1cnccc1Nc1nc(-c2ccc(F)c(C)n2)nc2[nH]ccc12 [Example 46, N-[2-(5-fluoro-6-methylpyridin-2-yl)-7H-pyrrolo[2,3-d]pyrimidin-4-yl]-3-methoxypyridin-4-amine]
1.4	Cc1nc(-c2nc(Nc3ccnc(NC(=O)C4CC4)c3)c3cc[nH]c3n2)ccc1F [Example 47, N-(4-{[2-(5-fluoro-6-methylpyridin-2-yl)-7H-pyrrolo[2,3-d]pyrimidin-4-yl]amino}pyridin-2-yl)cyclopropanecarboxamide]
4.3	CN(c1ccncc1)c1nc(-c2cccc(NS(C)(=O)=O)n2)nc2[nH]ccc12 [Example 48, N-(6-{4-[methyl(pyridin-4-yl)amino]-7H-pyrrolo[2,3-d]pyrimidin-2-yl}pyridin-2-yl)methanesulfonamide]
2.2	CS(=O)(=O)Nc1cccc(-c2nc(Nc3ccncc3Cl)c3cc[nH]c3n2)n1 [Example 49, N-(6-{4-[(3-chloropyridin-4-yl)amino]-7H-pyrrolo[2,3-d]pyrimidin-2-yl}pyridin-2-yl)methanesulfonamide]
